From patent publication US12202832B2, “Heterocyclic compounds having a calcium-sensing receptor antagonistic activity” (TAKEDA PHARMACEUTICAL COMPANY LIMITED, priority 2017, dated 2025)

Columns and labels:
CYP3A = assay: CYP induction (CYP3A activity in cryopreserved hepatocytes, P450-Glo CYP3A4 assay); type: in vitro ADME; conditions: % of positive control; inducibility by 10 μmol/L rifampicin defined as 100%; hepatocytes treated 3 days
Protocol: Cryopreserved hepatocytes were thawed in a culture medium (In VitroGRO™ CP Medium, Celsis In Vitro Technologies, U.S.A.), and the resultant was added to BioCoat™ Matrigel®™ Matrix Thin-Layer 96 well (Becton, Dickinson and Company, U.S.A.) at a concentration of 40,000 cells/well. After culturing for 24 hours, the culture medium was removed, and replaced with an incubation medium (In VitroGRO™, HI Medium with Torpedo Antibiotic Mix, Celsis In Vitro Technologies, U.S.A.). Cells were cultured for an additional 3 days. The medium was removed on day 4, and the remained cells were treated in the induction medium containing a test compound for 3 days in the presence or absence of 10 μmol/L rifampicin. The induction medium was replaced every day. The test compound addition wells in the presence of 10 μmol/L rifampicin were used to evaluate the inhibitory effect of the test compound on the inducibility of the CYP3A activity by rifampicin. The CYP3A activity was evaluated by measuring luciferin generating amount after the addition of 2 μmol/L luciferin-IPA using IPA P450-Glo™ CYP3A4 assay systems (Promega Corporation, U.S.A.). All cultures were carried out under a humidified environment at 37° C., 5% CO2. The inducibility by rifampicin was defines as 100%, and the inducibility of the test compound (% of positive control) was calculated from the following equation: [(luciferin fluorescence intensity in the absence of rifampicin and the presence of test compound)−(luciferin fluorescence intensity in the absence of rifampicin and test compound)/(luciferin fluorescence intensity in the presence of rifampicin and the absence of test compound)−(Luciferin fluorescence intensity in the absence of rifampicin and test compound)]×100.

human CaSR = biological target: T1, human CaSR (Homo sapiens, UniProt P41180); assay: Human CaSR antagonist activity (NFAT-Luciferase reporter in CHO cells); type: cell-based; conditions: CHO, CaCl2 final 1.3 mM, 100% = reference antagonist at 10 μM, read-out: Inhibition rate (%) at 3.3 μM
T1 construct: expressed in transfected cells; host or cells: CHO cells
T1 sequence (P41180 20-1078): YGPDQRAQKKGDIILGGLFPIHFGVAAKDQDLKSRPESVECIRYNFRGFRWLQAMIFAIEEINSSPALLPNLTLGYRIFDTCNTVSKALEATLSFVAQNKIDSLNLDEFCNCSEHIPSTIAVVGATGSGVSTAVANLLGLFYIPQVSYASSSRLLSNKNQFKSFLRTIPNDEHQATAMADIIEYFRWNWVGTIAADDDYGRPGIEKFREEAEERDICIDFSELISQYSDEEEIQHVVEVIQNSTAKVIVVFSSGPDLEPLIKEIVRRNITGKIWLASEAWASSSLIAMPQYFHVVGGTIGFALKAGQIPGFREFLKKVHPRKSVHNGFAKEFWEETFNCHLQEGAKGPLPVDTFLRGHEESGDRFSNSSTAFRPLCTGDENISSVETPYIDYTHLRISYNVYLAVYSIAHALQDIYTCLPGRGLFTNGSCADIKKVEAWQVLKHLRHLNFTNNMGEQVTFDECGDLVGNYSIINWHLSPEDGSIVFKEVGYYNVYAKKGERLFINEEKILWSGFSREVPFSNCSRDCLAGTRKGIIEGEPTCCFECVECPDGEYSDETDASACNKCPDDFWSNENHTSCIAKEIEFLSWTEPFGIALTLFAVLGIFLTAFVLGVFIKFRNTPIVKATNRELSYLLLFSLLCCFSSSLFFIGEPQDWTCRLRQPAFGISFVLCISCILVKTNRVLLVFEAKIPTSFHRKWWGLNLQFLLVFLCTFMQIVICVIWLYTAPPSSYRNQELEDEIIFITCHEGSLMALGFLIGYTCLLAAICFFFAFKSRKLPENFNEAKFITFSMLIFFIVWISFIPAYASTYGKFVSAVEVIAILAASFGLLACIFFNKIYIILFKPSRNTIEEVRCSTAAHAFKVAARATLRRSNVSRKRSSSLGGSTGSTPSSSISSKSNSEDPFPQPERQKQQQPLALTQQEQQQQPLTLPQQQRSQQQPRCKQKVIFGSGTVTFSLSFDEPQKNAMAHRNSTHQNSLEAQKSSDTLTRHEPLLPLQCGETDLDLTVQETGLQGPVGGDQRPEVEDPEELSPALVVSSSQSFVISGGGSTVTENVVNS
Protocol: CaSR antagonist activity measurement was performed using Bright-Glo Luciferase assay system (Promega Corporation). CHO cells in which human CaSR and NFAT-Luciferase reporter gene were forcibly expressed were suspended in MEM alpha (Wako Pure Chemical Industries, Ltd.) containing 10% dialyzed serum (HyClone). The cells in suspension was seeded in 384-well white plate (Corning) at 10,000/20 μL/well, and cultured in an incubator of 37° C., 5% CO2 for one day. A diluent of Test compound was prepared with assay buffer (MEM alpha containing 10 mM HEPES (Life Technologies) and 10% dialysis serum). The diluent was added to the plate at 5 μL/well and allowed to stand at 37° C. for 10 minutes. Further, a diluent of 7.8 mM CaCl2 prepared with assay buffer (final concentration 1.3 mM) was added at 5 μl/well and allowed to stand in an incubator of 37° C., 5% CO2 for 2 hours. Bright-Glo reagents (Promega Corporation) were added at 10 μL/well, and the obtained mixture was stirred for 5 minutes, and then luminescence intensity was measured using Multi-label reader Envision (PerkinElmer, Inc.). The activity (%) of the test compound was calculated with the definitions in which the luminescence intensity when DMSO is added in place of the test compound is defined as 0% inhibition; and the luminescence intensity when (5R)—N-(1-ethyl-1-(4-ethylphenyl)propyl)-2,7,7-trimethyl-5-phenyl-4,5,6,7-tetrahydropyrazolo[1,5-a] Pyrimidine-3-carboxamide at final concentration of 10 μM is added is defined as 100% inhibition.

## CCc1ccc([C@@](CC)(NC(=O)c2c(C)nn3c2N[C@@H](c2ccccc2)CC3(C)C)C(=O)N[C@@H](C)C(N)=O)cc1 [Example 1, (5R)-N-((2R)-1-(((2S)-1-Amino-1-oxopropan-2-yl)amino)-2-(4-ethylphenyl)-1-oxobutan-2-yl)-2,7,7-trimethyl-5-phenyl-4,5,6,7-tetrahydropyrazolo[1,5-a]pyrimidine-3-carboxamide]
CYP3A
  Inducibility: 15.3%
Human CaSR
  inhibition at 3.3 µM: 103%
